Like-named read-outs stand apart in the source and are kept apart here.
What was measured:
2019-nCoV = details: block of COVID-19 infection in vitro, Wang et al.; read-out: half-maximal effective concentration (EC50); cited from earlier work
[1] = test system: SARS-CoV-2 clinically isolated strain; details: cited from earlier work; for EC50: Vero cells, Yao et al.
[2] = Solubility in propylene glycol and solvent mixtures by LC-HR-MS; type: physicochemical; details: for Accuracy (ratio of measured concentration to calculated concentration): propylene glycol, 40° C.
Procedure: Chloroquine and hydroxychloroquine were synthesized according to published procedures at WuXi AppTec (Wuhan, China). […] The solubility of HCQ in propylene glycol (PG) was evaluated by preparing formulations at various concentrations and assessing their solubility by performing liquid chromatography-high resolution-mass spectrometry (LC-HR-MS). The solubility of HCQ in PG was measured at 40° C. and atmospheric pressure (~100 kPa) -Table 1a.
The solubility of HCQ in different solvent mixtures comprising propylene glycol (PG); glycerol and/or water was evaluated by preparing formulations and assessing the solubility of HCQ by performing liquid chromatography-high resolution-mass spectrometry (LC-HR-MS) as shown in Table 1b.

[3] = Thermal decomposition during thermal aerosolization (LC-HR-MS); type: physicochemical; details: LC-HR-MS of aerosol trapped on Cambridge pad filter
Procedure: Using the described aerosol generation and characterization setup, the aerosol produced from the device was pushed through the Cambridge filter pad connected to an impinger filled with 5 mL of ethanol to assess the transfer amount of hydroxychloroquine from the liquid to the aerosol. Compound extraction from the Cambridge filter pads was performed by adding 5 mL of ethanol from the impinger and another 5 mL of fresh ethanol to the filter pad. The two fractions were combined (total volume of 10 mL) for quantification. Chemical analyses for drug solubility and transfer rate assessment were performed by liquid chromatography equipped with a HILIC BEH amide column (50 × 3 mm, 1.7 µm, Waters, Manchester, UK) coupled to high resolution accurate mass spectrometry (Vanquish Duo - Q Exactive HF system, LC-HR-MS, ThermoFisher Scientific, Waltham, MA, USA). Mobile phases were composed of acetonitrile containing 0.1% formic acid and 10 mM ammonium formate. Samples were diluted to fit the calibration curve built from 9-calibrant levels (5-100 ng/mL). A volume of 5 µL diluted solution was injected. Mass spectrometry detection was realized in positive electrospray ionization with a mass resolution of 60,000 by scanning full scan mass from m/z 50-350.

[4] = Aerosol particle size distribution (Aerodynamic Particle Sizer); type: physicochemical; details: thermal aerosol from 100 mg/mL in propylene glycol, heater 200-220° C.
Procedure: A liquid formulation containing a solution of hydroxychloroquine in propylene glycol at a concentration of 100 mg/mL was prepared and filled into a consumable cartridge.
The liquid formulation was nebulized using a device comprising a mesh heating element as described in WO2018153608 (A1). Aerosol from the liquid formulation was generated by thermal aerosolization. The temperature of the heater was maintained between 200-220° C. A programmable dual syringe pump (PDSP) with a simulated inhalation regimen of 55 mL delivered in 3 sec puff duration and 30 sec interval (including the subsequent discharge from the pump during piston down stroke) was used to transfer the aerosol. The PDSP pump was attached to a SUPER SESI (Fossilion Technologies, Madrid, SP) interfaced with Q Exactive HF system (Thermo Fisher Scientific, Waltham, MA, USA) as shown in FIG. 2.
The particle size distribution of the aerosols was measured using the TSI 3321 Aerodynamic Particle Sizer (APS, TSI Incorporated, Shoreview, MN, USA). To reach the operational flowrate of 5 L/min and to stay within the limits of detection concerning large particle number densities obtained in the experiment, the […] was connected with a 3302A Aerosol Diluter (TSI Incorporated), upstream of the APS using a 30 cm conductive tube with a 1-cm inner diameter (FIG. 3). […]

In the case of CCN(CC)CCCC(C)Nc1ccnc2cc(Cl)ccc12 (centres unmarked) [chloroquine], the EC50 (2019-nCoV) is given as 1130 nM.

For hydroxychloroquine, the EC50 ([1]; 24 hours) is given as 6.14 µM, the EC50 ([1]; 48 hours) is given as 0.72 µM and the “in vitro EC50” value ([1]; value from Yao et al.) is given as 242 ng/mL. The “in vitro EC90” value ([1]; value from Yao et al.) was 1680 ng/mL, the Solubility ([2]; Mix 1: propylene glycol 75%, glycerol 20%, water 5%) was 151 mg/mL and the Solubility ([2]; Mix 2: propylene glycol 75%, glycerol 15%, water 10%) was 141 mg/mL. For the same compound, the Solubility ([2]; Mix 3: propylene glycol 45%, glycerol 45%, water 10%) was 42 mg/mL, the Solubility ([2]; Mix 4: propylene glycol 90%, glycerol 10%, water 0%) was 150 mg/mL and the Solubility ([2]; Mix 5: propylene glycol 90%, glycerol 0%, water 10%) was 324 mg/mL. It also gave a Solubility ([2]; Mix 6: propylene glycol 85%, glycerol 0%, water 15%) of 261 mg/mL, a Solubility ([2]; Mix 7: propylene glycol 95%, glycerol 0%, water 5%) of 322 mg/mL and a Solubility ([2]; Mix 8: propylene glycol 100, glycerol 0%, water 0%) of 139 mg/mL. The “Accuracy (ratio of measured concentration to calculated concentration)” value ([2]; calculated concentration 1.3 mg/mL) was 78%, the “Accuracy (ratio of measured concentration to calculated concentration)” value ([2]; calculated concentration 10.2 mg/mL) was 103% and the “Accuracy (ratio of measured concentration to calculated concentration)” value ([2]; calculated concentration 20.9 mg/mL) was 104%. The “Accuracy (ratio of measured concentration to calculated concentration)” value ([2]; calculated concentration 40.6 mg/mL) was 92%, the “Accuracy (ratio of measured concentration to calculated concentration)” value ([2]; calculated concentration 100.6 mg/mL) was 96% and the “decomposition during thermal aerosolization” value [3] was “no decomposition”. For the same compound, the “median aerodynamic diameter of aerosol particles” value [4] was 1.3 µm.
